Assay results taken from patent publication US20060094059A1, “Methods for identifying new drug leads and new therapeutic uses for known drugs” (Odyssey Thera, Inc., priority 2004, published 2006).

Assays:
HSP90:Eef2k = experiment: Protein-fragment complementation assay Hsp90:Eef2k; type: cell-based, human
Description: (§1) To construct dynamic assays for protein-protein complexes, we used a protein-fragment complementation assay strategy (PCAs) in intact human cells. (A variety of other suitable assays, and reporter options, are described in detail below.) The principle of PCA is that complementary polypeptide fragments (F[1] and F[2]) of a reporter protein or enzyme will fold into an active form only if fused to two proteins which interact and bring the complementary fragments of the reporter protein into proximity. Reconstitution of the fragments of the reporter protein generates a fluorescent signal that can be quantified in intact cells, and the amount of the signal is proportional to the amount of the protein-protein complex used in constructing the assay. Given a suitable reporter type, the subcellular location of the complex can also be measured.
Reporter fragments for PCA were generated by oligonucleotide synthesis (Blue Heron Biotechnology, Bothell, Wash.), starting with the sequence of yellow fluorescent protein (YFP). First, oligonucleotides coding for polypeptide fragments YFP[1]and YFP[2] […] Next, PCR mutagenesis was used to generate the mutant fragments IFP[1] and IFP[2]. The IFP[1] fragment corresponds to YFP[1]-(F46L, F64L, M153T) and the IFP[2] fragment corresponds to YFP[2]-(V163A, S175G). […] The YFP[1], YFP[2], IFP[1] and IFP[2] fragments were amplified by PCR to incorporate restriction sites and a linker sequence, described below, in configurations that would allow fusion of a gene of interest to either the 5′- or 3′-end of each reporter fragment. The reporter-linker fragment cassettes were subcloned into a mammalian expression vector (pcDNA3.1Z, Invitrogen) that had been modified to incorporate the replication origin (oriP) of the Epstein Barr virus (EBV). […] Additionally, these vectors still retain the SV40 origin, allowing for episomal expression in cell lines expressing the SV40 large T antigen (e.g. HEK293T, Jurkat or COS). […]

Smad3:HDAC = experiment: Protein-fragment complementation assay Smad3:HDAC; type: cell-based, human; details: hit in HDAC/SMAD3 assay; drugs screened at 10 micromolar
Description: as §1
(§2) Reporter fragments for PCA were generated by oligonucleotide synthesis (Blue Heron Biotechnology, Bothell, Wash.), starting with the sequence of yellow fluorescent protein (YFP). First, oligonucleotides coding for polypeptide fragments YFP[1]and YFP[2] […] Next, PCR mutagenesis was used to generate the mutant fragments IFP[1] and IFP[2]. The IFP[1] fragment corresponds to YFP[1]-(F46L, F64L, M153T) and the IFP[2] fragment corresponds to YFP[2]-(V163A, S175G). […]

MAX:MYC = experiment: Protein-fragment complementation assay MAX:MYC; type: cell-based, human; details: hit in MYC/MAX assay; drugs screened at 10 micromolar
Description: as §1, §2

[1] = system: non-small cell lung carcinoma (A549) cells; experiment: MTT proliferation assay, NSCLC; type: cell-based, Human; details: Homo sapiens, Tumor Cell NSCLC (A549), 120 hours, read-out: Anti-proliferative IC-50
Description: (§3) Cells were maintained in various media as follows: A549, LoVo and PC-3 (Ham's F12K medium with 2 mM L-glutamine and 1.5 g/L sodium bicarbonate), MIA PaCa-2 (Dulbecco's modified Eagle's medium with 4 mM L-glutamine and 4.5 g/L glucose), U87-MG (MEM+Earle's BSS). Medium for each cell line was supplemented with 10% FBS and […] Penecillin/Streptomycin. All cells were grown in incubators set at 37° C., 5% CO2. Thiazolyl Blue Tetrazolium Bromide (MTT) based proliferation assays were performed to assess the anti-proliferative activities of the compounds on these cells. Cells were seeded in 96 well plates at a density of 750 cells/well 24 hours prior to compound treatment. The cells were incubated with varying concentrations of compounds for 120 hours. […] Drug treatment was performed in 5 replicate wells. Background absorbance was established by wells containing medium but no cells. Vehicle (DMSO) only was used as control. MTT (Sigma-Aldrich, St. Louis, Mo.) was added to each well at a final concentration of 0.5 mg/ml. Following a 2 hour incubation at 37° C., medium in the wells was replaced with 0.15 ml DMSO. The plates were agitated for 15 min using a microtiter plate shaker.

[2] = system: pancreatic carcinoma (MIA PaCa-2) cells; experiment: MTT proliferation assay, pancreatic; type: cell-based, Human; details: Homo sapiens, Tumor Cell Pancreatic (MIA PaCa-2), 120 hours, read-out: Anti-proliferative IC-50
Description: as §3

HSP90:CDC37 = experiment: Protein-fragment complementation assay Hsp90:CDC37; type: cell-based, human
Description: as §1, §2

IC50 [1]: 660 nM
IC50 [2]: 590 nM
Compound: O=C(Nc1ccc([N+](=O)[O-])cc1Cl)c1cc(Cl)ccc1O [Niclosamide]
level of HSP90:Eef2k complexes (intensity of the fluorescence) (HSP90:Eef2k; FIG. 3D): decrease in the level
Assay activity (HSP90:Eef2k; hit in HSP90/Eef2k assay, drugs screened at 10 micromolar): HSP90/Eef2k,
Assay activity (Smad3:HDAC): HDAC/SMAD3,
Assay activity (MAX:MYC): MYC/MAX
level of HSP90:CDC37 complexes (intensity of the fluorescence) (HSP90:CDC37; FIG. 3D): decrease in the level
Assay activity (HSP90:CDC37; hit in HSP90/CDC37 assay, drugs screened at 10 micromolar): HSP90/CDC37,
